# Data as given in publication PMC7064328 (Environmental Health Perspectives, 2020).
# “And” between values parts separate entries of the source, which are not always exact repeats. Equal entries are not always repeated.
# System: Pregnant CD-1 mice
# Assay: Maternal indices: dam body weight, gestational weight gain, liver and kidney weight after daily oral gavage E1.5 to E11.5 or E17.5
# Type: in vivo, mouse (CD-1)
# Details: for E0.5 weight: baseline; for Relative GWG, E11.5 estimate (95% CI) / Relative GWG, E17.5 Estimate (95% CI) / Relative GWG, E11.5 Estimate (95% CI) relative to VC: adjusted for litter size
# Description: Naïve female CD-1 mice between 7.5 and 15.5 wk of age from the NIEHS colony were bred in-house on a single night, and copulatory plug–positive females were identified on embryonic day (E) 0.5. Pregnant dams were singly housed in ventilated polypropylene cages and received nesting materials, National Institutes of Health (NIH)-31 diet (Zeigler Bros., Inc.) and reverse osmosis deionized (RODI) water ad libitum. Animals were housed in humidity- and temperature-controlled rooms with 25°C and 45–60% average humidity and standard 12-h light cycles. All animal procedures were approved by the NIEHS Animal Care and Use Committee (ASP #2017-0022).
# PFOA and GenX dosing solutions were prepared in RODI water and administered to mice once daily via oral gavage. Daily doses were administered between 0700 and 0800 hours and adjusted to the BW of the mouse based on the previous day’s weight at a volume of 0.01mL/g BW. […] The dose of 1mg/kg BW/d PFOA, used in the mouse developmental toxicity study of [Lau et al. 2006], provided a lowest effect dose that was used to set the reference dose within the U.S. EPA’s drinking water lifetime health advisory level (HAL) of 70 ppt PFOA ([U.S. EPA 2016]).
# This experiment was conducted over two blocks (Block 1 and Block 2) to achieve a total of n=11–13 litters per treatment group and sacrifice time point (E11.5 and E17.5). The experimental design of the second block was identical to the first block of the study, and experimental methods were similar but expanded upon to include more rigorous and detailed measurements. Copulatory plug–positive mice (E0.5) were weighed to obtain a baseline BW and placed into one of five groups. Once all mice were assigned to groups, mean BWs were calculated, and a few animals were reassigned so that mean BWs in each group were similar. This was done to avoid confounding effects of baseline BW. Treatment groups were then randomly assigned a color by using a random sequence generator. Experimenters and dosing technicians were blinded to the treatment group to which the color groups corresponded throughout the duration of the study, including at necropsy. […] Pregnant dams were dosed via oral gavage from E1.5 to E11.5 or from E1.5 to E17.5. […] The E11.5 early-gestation time point was selected because it overlaps a critical period of placental development in the mouse where the placenta undergoes vascularization with the uterine wall and chorioallantoic branching of vessels begins ([Watson and Cross 2005]). The E17.5 late-gestation time point was selected so that embryo weight changes that may be related to treatment would be evident.
# On the day of necropsy, dams received daily oral gavage between 0700 and 0800 hours and were weighed and then euthanized humanely by swift decapitation, and serum was collected. In Block 1, necropsies were completed from 0800 to 1600 hours, and in Block 2, necropsies were completed from 0800 to 1200 hours. Serum from dams euthanized in Block 1 was snap frozen for internal dosimetry analyses. Serum and urine from Block 2 dams were reserved for clinical chemistry analyses. In both blocks, the uterus was removed, and total implantation sites were counted based on gross observation of an implantation nodule along the uterine horn. Viable embryos, nonviable embryos, and sites of resorption were counted based on gross observation. Embryos were considered viable if they were properly formed, were not pale in color, and were of similar size to neighboring embryos. Embryos that were poorly formed and pale in color (without heartbeat) were considered nonviable. Sites of resorption were defined as a dark red–appearing clot-like nodule apparent on gross observation.
# From each uterus, first, viable embryos and their matched placentas were collected in succession within a horn and immediately snap frozen ( n=2–5 per litter ), and subsequent embryos were collected for growth measurements ( n=2–11 per litter ). […]
structure (smiles),measurement,setting,value
"O=C(O)C(F)(F)C(F)(F)C(F)(F)C(F)(F)C(F)(F)C(F)(F)C(F)(F)F [PFOA, Perfluorooctanoic acid]",Kidney weight,"E11.5, 1 mg/kg/d",0.20 ± 0.02 g
same,Liver weight,"E11.5, 1 mg/kg/d",2.9 ± 0.2 g
same,Relative kidney weight,"E11.5, 1 mg/kg/d",0.51±0.04 % BW
same,Relative liver weight,"E11.5, 1 mg/kg/d",7.4±0.5 % BW
same,Weight at necropsy,"E11.5, 1 mg/kg/d",38.8 ± 2.4 g
same,Weight at necropsy (% change from E0.5),"E11.5, 1 mg/kg/d",24.7±6.3%
same,Kidney weight,"E11.5, 5 mg/kg/d",0.21 ± 0.03 g
same,Liver weight,"E11.5, 5 mg/kg/d",4.5 ± 0.5 g
same,Relative kidney weight,"E11.5, 5 mg/kg/d",0.51±0.05 % BW
same,Relative liver weight,"E11.5, 5 mg/kg/d",11.0±0.9 % BW
same,Weight at necropsy,"E11.5, 5 mg/kg/d",40.2 ± 3.5 g
same,Weight at necropsy (% change from E0.5),"E11.5, 5 mg/kg/d",29.6±6.3%
same,E0.5 weight,"E11.5 group, 1 mg/kg/d",31.2 ± 3 g
same,E0.5 weight,"E11.5 group, 5 mg/kg/d",31.1 ± 3.2 g
same,Kidney weight,"E17.5, 1 mg/kg/d",0.22 ± 0.04 g
same,Liver weight,"E17.5, 1 mg/kg/d",3.1 ± 0.4 g
same,Relative kidney weight,"E17.5, 1 mg/kg/d",0.40±0.04 % BW
same,Relative liver weight,"E17.5, 1 mg/kg/d",5.6±0.5 % BW
same,Weight at necropsy,"E17.5, 1 mg/kg/d",54.6 ± 5.3 g
same,Weight at necropsy (% change from E0.5),"E17.5, 1 mg/kg/d",92.6±17.1%
same,Kidney weight,"E17.5, 5 mg/kg/d",0.24 ± 0.03 g
same,Liver weight,"E17.5, 5 mg/kg/d",5.3 ± 0.5 g
same,Relative kidney weight,"E17.5, 5 mg/kg/d",0.40±0.03 % BW
same,Relative liver weight,"E17.5, 5 mg/kg/d",9.3±0.7 % BW
same,Weight at necropsy,"E17.5, 5 mg/kg/d",57.4 ± 6.0 g
same,Weight at necropsy (% change from E0.5),"E17.5, 5 mg/kg/d",98.7±20.2%
same,E0.5 weight,"E17.5 group, 1 mg/kg/d",28.5 ± 3.8 g
same,E0.5 weight,"E17.5 group, 5 mg/kg/d",29.1 ± 3.4 g
same,"Relative GWG, E11.5 estimate (95% CI)",1 mg/kg/d,"16.2 (-0.2, 32.5) % gain from embryonic day 0.5"
same,"Relative GWG, E17.5 Estimate (95% CI)",1 mg/kg/d,"44.9 (6.5, 83.3) % gain from embryonic day 0.5"
same,"Relative GWG, E11.5 Estimate (95% CI) relative to VC",5 mg/kg/d,"4.3 (-1.8, 10.5) % gain from embryonic day 0.5"
same,"Relative GWG, E11.5 estimate (95% CI)",5 mg/kg/d,"21.6 (5.4, 37.9) % gain from embryonic day 0.5"
same,"Relative GWG, E17.5 Estimate (95% CI)",5 mg/kg/d,"50.7 (12.2, 89.0) % gain from embryonic day 0.5"
same,"Relative GWG, E11.5 Estimate (95% CI) relative to VC","5 mg/kg/d, 5 mg/kg/day","14.5 (1.4, 27.5) % gain from embryonic day 0.5 and 14.5 % gain from embryonic day 0.5"
same,"Relative GWG, E11.5 Estimate (95% CI) relative to VC","fourth column (after E17.5 estimate), 1 mg/kg/d","8.7 (-4.3, 21.8) % gain from embryonic day 0.5"
same,"Relative GWG, E11.5 Estimate (95% CI) relative to VC","second column, 1 mg/kg/d","-1.1 (-7.4, 5.1) % gain from embryonic day 0.5"
"N.O=C(O)C(F)(OC(F)(F)C(F)(F)C(F)(F)F)C(F)(F)F (centres unmarked) [GenX, ammonium 2,3,3,3-tetrafluoro-2-(heptafluoropropoxy)propanoate]",Kidney weight,"E11.5, 2 mg/kg/d",0.22 ± 0.02 g
same,Liver weight,"E11.5, 2 mg/kg/d",3.1 ± 0.2 g
same,Weight at necropsy,"E11.5, 2 mg/kg/d",38.3 ± 3.2 g
same,Weight at necropsy (% change from E0.5),"E11.5, 2 mg/kg/d",28.9±5.4%
same,Kidney weight,"E11.5, 10 mg/kg/d",0.23 ± 0.06 g
same,Liver weight,"E11.5, 10 mg/kg/d",4.2 ± 0.5 g
same,Weight at necropsy,"E11.5, 10 mg/kg/d",40.0 ± 2.5 g
same,Weight at necropsy (% change from E0.5),"E11.5, 10 mg/kg/d",32.3±9.6 %
same,E0.5 weight,"E11.5 group, 2 mg/kg/d",29.7 ± 2.2 g
same,E0.5 weight,"E11.5 group, 10 mg/kg/d",30.7 ± 2.5 g
same,Kidney weight,"E17.5, 2 mg/kg/d",0.21 ± 0.02 g
same,Liver weight,"E17.5, 2 mg/kg/d",3.5 ± 0.5 g
same,Weight at necropsy,"E17.5, 2 mg/kg/d",55.4 ± 6.5 g
same,Weight at necropsy (% change from E0.5),"E17.5, 2 mg/kg/d",97.3±15.2%
same,Kidney weight,"E17.5, 10 mg/kg/d",0.25 ± 0.02 g
same,Liver weight,"E17.5, 10 mg/kg/d",4.6 ± 0.4 g
same,Weight at necropsy,"E17.5, 10 mg/kg/d",56.7 ± 5.5 g
same,Weight at necropsy (% change from E0.5),"E17.5, 10 mg/kg/d",98.5±15.7%
same,E0.5 weight,"E17.5 group, 2 mg/kg/d",28.2 ± 3.5 g
same,E0.5 weight,"E17.5 group, 10 mg/kg/d",28.7 ± 3.6 g
